Data as given in patent US20090149417A1, “Methods and compositions for the treatment of cancer using benzopyrone-type PARP inhibitors” (priority 2007, published 2009).

Columns and labels:
[1] = test system: human MX-1 breast carcinoma; assay: Human MX-1 breast carcinoma xenograft model in nude mice; type: in vivo
Protocol: Female athymic nude mice (nu/nu, Harlan) are 10 weeks old, and have a body weight (BW) range of 18.1-27.0 g on D1 of the study. The animals are fed ad libitu water (reverse osmosis, 1 ppm Cl) and NIH 31 Modified and Irradiated Lab Diet® consisting of 18.0% crude protein, 5.0% crude fat, and 5.0% crude fiber. The mice are housed on irradiated ALPHA-dri® bed-o-cobs® Laboratory Animal Bedding in static microisolators on a 12-hour light cycle at 21-22° C. (70-72° F.) and 40-60% humidity. PRC specifically complies with the recommendations of the Guide for Care and Use of Laboratory Animals with respect to restraint, husbandry, surgical procedures, feed and fluid regulation, and veterinary care. […]
The human MX-1 breast carcinoma utilized in the present study is maintained in nude mice by serial engraftment. […] Tumors are monitored twice weekly and then daily as their volumes approached 80-120 mm^3. […] Tumor size, in mm3, is calculated from: […]
Tumors are calipered twice weekly for the duration of the study. […] The time to endpoint (TTE) for each mouse is calculated according to the following equation: […]
where TTE is expressed in days, endpoint volume is in mm3, b is the intercept, and m is the slope of the line obtained by linear regression of a log-transformed tumor growth data set. […] The calculated TTE is usually less than the day on which an animal is euthanized for tumor size. […]

[2] = test system: human tumor cells including pancreatic, breast, uterine, lung, prostate, and ovarian cancer cells; assay: Proliferation of human tumor cells in vitro (summary); type: cell-based
[3] = test system: eight pancreatic cancer cells; assay: BrdU-ELISA proliferation assay, IIIg alone and with oxaliplatin; type: cell-based, human
Protocol: The effect of IIIg alone and in combination with oxaliplatin on the proliferation of eight pancreatic cancer cells is determined using a BrdU-ELISA assay.
Assessment of synergy is performed according to the method described by Chou and Talalay.

[4] = test system: malignant cancer cells; conditions: malignant versus nonmalignant cells; Kirsten E, Kun E, Int J Mol Med 2000; cited from earlier work

Compound: O=c1ccc2c(I)c([N+](=O)[O-])ccc2o1 [IIIg, 5-iodo-6-nitro-benzopyrone]
- Survival of tumor-bearing animals ([1]; biweekly intraperitoneal injection, 100 mg/kg): prolongs survival
- Tumor growth ([1]; once-daily or twice-weekly administration): inhibits tumor growth
- Proliferation of human tumor cells [2]: inhibits the proliferation
- IC50 ([3]; Homo sapiens, Pancreatic cancer cell, IIIg alone, range over eight PC cell lines, read-out: IC50 (growth of eight PC cell lines)): 5 to 10 µM
- Potentiation of oxaliplatin cytotoxicity ([3]; different pancreatic cancer cell models): potentiates oxaliplatin cytotoxicity
- Selective cytotoxicity [4]: selective cytotoxicity upon malignant cancer cells but not upon nonmalignant cells
